Reference: US20120302569A1, “PHENYL-THIAZOLYL INHIBITORS OF PRO-MATRIX METALLOPROTEINASE ACTIVATION” (priority 2011, published 2012)
Where a name gives a salt, the structure may show the parent alone.

What was measured:
[1] = biological target: T1, full-length proMMP9(1-707) (SEQ ID NO:1) (Homo sapiens, UniProt P14780, R574P); experiment: proMMP9/MMP3 P126 Activation Assay; format: biochemical; details: proMMP9(1-707) from HEK293 cells activated by catalytic MMP3
T1 construct: made in house; host or cells: HEK293 (proMMP9, secreted); E. coli (MMP3)
T1 sequence (P14780 20-707 R574P): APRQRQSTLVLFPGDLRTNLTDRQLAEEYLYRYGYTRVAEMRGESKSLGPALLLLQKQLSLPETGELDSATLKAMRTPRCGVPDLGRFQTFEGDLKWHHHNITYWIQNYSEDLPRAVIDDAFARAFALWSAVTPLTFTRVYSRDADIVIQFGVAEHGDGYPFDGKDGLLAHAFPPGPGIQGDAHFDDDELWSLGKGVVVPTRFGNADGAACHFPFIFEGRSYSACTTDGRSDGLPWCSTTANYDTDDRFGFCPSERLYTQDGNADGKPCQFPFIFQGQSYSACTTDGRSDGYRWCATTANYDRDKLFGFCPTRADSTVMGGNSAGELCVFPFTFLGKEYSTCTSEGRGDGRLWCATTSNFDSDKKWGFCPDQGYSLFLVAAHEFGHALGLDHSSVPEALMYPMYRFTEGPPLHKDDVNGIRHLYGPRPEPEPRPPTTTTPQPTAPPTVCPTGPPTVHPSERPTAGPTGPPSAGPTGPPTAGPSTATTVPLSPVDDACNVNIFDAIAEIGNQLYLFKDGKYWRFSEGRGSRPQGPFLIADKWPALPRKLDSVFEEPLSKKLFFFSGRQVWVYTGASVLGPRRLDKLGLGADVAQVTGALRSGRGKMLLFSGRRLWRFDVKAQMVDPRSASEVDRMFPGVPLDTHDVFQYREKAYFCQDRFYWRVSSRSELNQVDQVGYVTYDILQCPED
Protocol: proMMP9/MMP3 P126 Activation Assay
The reaction volume was 50 μL. […] Reactivity of residual MMP3 towards P-126 substrate was minimal under these conditions.

[2] = biological target: T2, proMMP13(1-268) (SEQ ID NO:7) (Homo sapiens, UniProt P45452); experiment: ProMMP13/Plasmin P126 Activation Assay; format: biochemical; details: proMMP13(1-268) activated by plasmin
T2 construct: 6×-histidine tag (C); made in house; host or cells: HEK293 (transient transfection, secreted)
Protocol: ProMMP13/Plasmin P126 Activation Assay
On the day of assay, proMMP13(1-268) (SEQ ID NO:7) purified from HEK293 cells and plasmin were diluted to 160 nM and 320 nM, respectively, in assay buffer. The reaction volume was 50 μL. […] The plate was sealed and incubated for 40 min at 37° C. […] Plasmin was not reactive towards P-126 substrate under these conditions.

[3] = biological target: T3, proMMP9(20-445;ΔFnII) (SEQ ID NO:6) (Homo sapiens, UniProt P14780, DEL216-390); experiment: ThermoFluor with proMMP9(20-445;ΔFnII); details: read-out: proMMP9(20-445; ΔFnII) (SEQ ID NO: 6) binding
T3 construct: start methionine (N); made in house; host or cells: E. coli BL21(DE3) RIL
T3 sequence (P14780 with tags, fused parts or gaps DEL216-390): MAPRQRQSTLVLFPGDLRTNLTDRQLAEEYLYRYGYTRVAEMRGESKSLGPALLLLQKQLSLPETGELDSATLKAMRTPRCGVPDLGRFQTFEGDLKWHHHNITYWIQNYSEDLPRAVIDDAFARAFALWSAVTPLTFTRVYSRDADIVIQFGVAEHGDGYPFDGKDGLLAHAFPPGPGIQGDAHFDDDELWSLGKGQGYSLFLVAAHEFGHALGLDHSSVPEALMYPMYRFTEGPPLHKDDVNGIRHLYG
Outline: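 Thermal shift of 2.8 μM desalted proMMP9(20-445;ΔFnII) with 50 μM 1,8-ANS in 50 mM HEPES pH 7.0, NaCl, Tween-20, MgCl2, CaCl2; heated 40-90 °C at 1 °C/min, emission 500 nm. Tm from fitted curves; binding fit using DSC/ThermoFluor-derived unfolding parameters for 11-point compound dilutions.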

[4] = biological target: T4, proMMP9(67-444;ΔFnII) (SEQ ID NO:5) (Homo sapiens, UniProt P14780, DEL216-390); experiment: ThermoFluor with proMMP9(67-444;ΔFnII); details: read-out: proMMP9(67-444; ΔFnII) (SEQ ID NO: 5) binding
T4 construct: start methionine (N); made in house; host or cells: E. coli BL21(DE3) RIL
T4 sequence (P14780 with tags, fused parts or gaps DEL216-390): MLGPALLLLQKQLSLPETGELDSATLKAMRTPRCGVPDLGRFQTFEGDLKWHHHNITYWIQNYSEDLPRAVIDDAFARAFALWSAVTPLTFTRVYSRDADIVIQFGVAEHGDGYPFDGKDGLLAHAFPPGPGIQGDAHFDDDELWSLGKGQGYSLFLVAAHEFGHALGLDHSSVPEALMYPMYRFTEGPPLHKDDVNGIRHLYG
Outline: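 Thermal shift with 3.5 μM protein and 50 μM 1,8-ANS in 50 mM HEPES pH 7.0, 100 mM NaCl, 0.001% Tween-20, 2.5 mM MgCl2, 300 μM CaCl2, heated 40–90 °C at 1 °C/min. Fluorescence (500±25 nm) fit to yield Tm; binding fitted using DSC/ThermoFluor-derived thermodynamic parameters, compounds dosed as serial dilutions.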

Row | IC50 [1] [nM] | IC50 [2] [nM] | Kd [3] [nM] | Kd [4] [nM] | Compound
1 | 70 | 2900 | 550 | 89 | CCOc1ccncc1Nc1nc(-c2ccc(OCCN3CCN(C)CC3)cc2)cs1 [Example 43, N-(4-ethoxypyridin-3-yl)-4-(4-(2-(4-methylpiperazin-1-yl)ethoxy)phenyl)thiazol-2-amine.TFA]
2 | 180 | 3400 | 26 | 40 | CC(C)Oc1ccc(S(N)(=O)=O)cc1Nc1nc(-c2ccc(CN3CCN(C)CC3)cc2)cs1 [Example 49, 4-isopropoxy-3-((4-(4-((4-methylpiperazin-1-yl)methyl)phenyl)thiazol-2-yl)amino)benzenesulfonamide.TFA]
3 | 24 | 190 | 17 | 14 | CC(C)Oc1ccc(S(N)(=O)=O)cc1Nc1nc(-c2ccc(C3=CCN(C)CC3)cc2)cs1 [Example 13, 4-Isopropoxy-3-((4-(4-(1-methyl-1,2,3,6-tetrahydropyridin-4-yl)phenyl)thiazol-2-yl)amino)benzenesulfonamide.TFA]
4 | 66 | 340 | 18 | 12 | CC(C)Oc1ccc(S(N)(=O)=O)cc1Nc1nc(-c2ccc(C3=CCNCC3)cc2)cs1 [Example 12, 4-Isopropoxy-3-((4-(4-(1,2,3,6-tetrahydropyridin-4-yl)phenyl)thiazol-2-yl)amino)benzenesulfonamide.TFA]
5 | 60 | 850 | 510 | 35 | CCOc1ccncc1Nc1nc(-c2ccc(C3=CCN(C(C)C)CC3)cc2)cs1 [Example 23, N-(4-Ethoxypyridin-3-yl)-4-(4-(1-isopropyl-1,2,3,6-tetrahydropyridin-4-yl)phenyl)thiazol-2-amine.TFA]
6 | 25 | 32 | 17 | 51 | CCN1CC=C(c2ccc(-c3csc(Nc4cc(C(N)=O)ccc4OC(C)C)n3)cc2)CC1 [Example 18, 3-((4-(4-(1-Ethyl-1,2,3,6-tetrahydropyridin-4-yl)phenyl)thiazol-2-yl)amino)-4-isopropoxybenzamide.TFA]
7 | 69 | 1200 | 340 | 36 | CCOc1ccncc1Nc1nc(-c2ccc(C3=CCN(CC)CC3)cc2)cs1 [Example 22, N-(4-Ethoxypyridin-3-yl)-4-(4-(1-ethyl-1,2,3,6-tetrahydropyridin-4-yl)phenyl)thiazol-2-amine.TFA]
8 | 27 | 270 | 16 | 78 | CC(C)Oc1ccc(C(N)=O)cc1Nc1nc(-c2ccc(OCCN3CCN(C)CC3)cc2)cs1 [Example 42, 4-isopropoxy-3-((4-(4-(2-(4-methylpiperazin-1-yl)ethoxy)phenyl)thiazol-2-yl)amino)benzamide.TFA]
9 | 74 | 390 | 88 | 88 | CC(C)Oc1ccc(S(N)(=O)=O)cc1Nc1nc(-c2ccc(N3CCN(C)CC3)cc2)cs1 [Example 3, 4-Isopropoxy-3-((4-(4-(4-methylpiperazin-1-yl)phenyl)thiazol-2-yl)amino)benzenesulfonamide.HCl]
10 | 59 | 930 | 58 | 95 | CC(C)Oc1ccc(S(N)(=O)=O)cc1Nc1nc(-c2ccc(CN3CC[C@@H](F)C3)cc2)cs1 [Example 53, (R)-3-((4-(4-((3-fluoropyrrolidin-1-yl)methyl)phenyl)thiazol-2-yl)amino)-4-isopropoxybenzenesulfonamide.TFA]
11 | 100 | 420 | 18 | 80 | CC(C)Oc1ccc(C(N)=O)cc1Nc1nc(-c2ccc(CN3CCN(C(C)C)CC3)cc2)cs1 [Example 56, 4-isopropoxy-3-((4-(4-((4-isopropylpiperazin-1-yl)methyl)phenyl)thiazol-2-yl)amino)benzamide.TFA]
12 | 62 | 340 | 20 | 99 | CC(C)Oc1ccc(C(N)=O)cc1Nc1nc(-c2ccc(OCCCN3CCOCC3)cc2)cs1 [Example 46, 4-isopropoxy-3-((4-(4-(3-morpholinopropoxy)phenyl)thiazol-2-yl)amino)benzamide.TFA]
13 | 28 | 87 | 13 | 21 | CC(C)Oc1ccc(C(N)=O)cc1Nc1nc(-c2ccc(C3=CCN(C(C)C)CC3)cc2)cs1 [Example 19, 4-Isopropoxy-3-((4-(4-(1-isopropyl-1,2,3,6-tetrahydropyridin-4-yl)phenyl)thiazol-2-yl)amino)benzamide.TFA]
14 | 76 | 600 | 32 | 77 | CC(C)Oc1ccc(S(N)(=O)=O)cc1Nc1nc(-c2ccc(OCCCN3CCOCC3)cc2)cs1 [Example 47, 4-isopropoxy-3-((4-(4-(3-morpholinopropoxy)phenyl)thiazol-2-yl)amino)benzenesulfonamide.TFA]
15 | 90 | 4300 | 1500 | 360 | COc1ccc(F)cc1Nc1nc(-c2ccc(OCCN3CCN(C)CC3)cc2)cs1 [Example 69, N-(5-fluoro-2-methoxyphenyl)-4-(4-(2-(4-methylpiperazin-1-yl)ethoxy)phenyl)thiazol-2-amine.TFA]
16 | 43 | 520 | 24 | 110 | CC(C)Oc1ccc(C(N)=O)cc1Nc1nc(-c2ccc(OCCN3CCN(C4CC4)CC3)cc2)cs1 [Example 44, 3-((4-(4-(2-(4-cyclopropylpiperazin-1-yl)ethoxy)phenyl)thiazol-2-yl)amino)-4-isopropoxybenzamide.TFA]
17 | 20 | 230 | 15 | 6 | CC(C)Oc1ccc(S(N)(=O)=O)cc1Nc1nc(-c2ccc(N3CCNCC3)cc2)cs1 [Example 1, 4-Isopropoxy-3-((4-(4-(piperazin-1-yl)phenyl)thiazol-2-yl)amino)benzenesulfonamide.TFA]
18 | 26 | 91 | 11 | 24 | CC(C)Oc1ccc(C(N)=O)cc1Nc1nc(-c2ccc(C3=CCN(C)CC3)cc2)cs1 [Example 17, 4-Isopropoxy-3-((4-(4-(1-methyl-1,2,3,6-tetrahydropyridin-4-yl)phenyl)thiazol-2-yl)amino)benzamide.TFA]
19 | 67 | 560 | 17 | 15 | CC(C)Oc1ccc(S(N)(=O)=O)cc1Nc1nc(-c2ccc(N3CCNCC3)c(Br)c2)cs1 [Example 2, 3-((4-(3-Bromo-4-(piperazin-1-yl)phenyl)thiazol-2-yl)amino)-4-isopropoxybenzenesulfonamide.TFA]
20 | 28 | 77 | 13 | 21 | CC(C)Oc1ccc(C(N)=O)cc1Nc1nc(-c2ccc(N3CCNCC3)cc2)cs1 [Example 7, 4-Isopropoxy-3-((4-(4-(piperazin-1-yl)phenyl)thiazol-2-yl)amino)benzamide.TFA]
21 | 110 | 850 | 20 | 99 | CC(C)Oc1ccc(C(N)=O)cc1Nc1nc(-c2ccc(CN3CCN(C)CC3)cc2)cs1 [Example 48, 4-isopropoxy-3-((4-(4-((4-methylpiperazin-1-yl)methyl)phenyl)thiazol-2-yl)amino)benzamide.TFA]
22 | 41 | 950 | 29 | 56 | CC(C)Oc1ccc(S(N)(=O)=O)cc1Nc1nc(-c2ccc(OCCN3CCN(C4CC4)CC3)cc2)cs1 [Example 45, 3-((4-(4-(2-(4-cyclopropylpiperazin-1-yl)ethoxy)phenyl)thiazol-2-yl)amino)-4-isopropoxybenzenesulfonamide.TFA]
